Data from patent publication US9752175B2, “Systems and methods to detect biofilm streamer growth and their uses” (The Trustees of Princeton University, priority 2014, dated 2017).

System: Pseudomonas aeruginosa PA14
Assay: Microfluidic pressure-driven flow assay (biofilm streamer clogging)
Type: cell-based
Settings: low concentration of tetracycline; microfluidic channel
Method: Overnight P. aeruginosa cultures were backdiluted 1:100 in tryptone broth and grown to midlogarithmic phase (OD600=0.5). This culture (100 mL) was used to fill a reservoir connected via Tygon tubing (inner diameter 2.4 mm) to a microfluidic channel made from polydimethylsiloxane (PDMS) (Sylgard 184, Dow Corning). The channels (FIG. 1A) are 90 μm high, 200 μm wide, and constitute the narrowest part of the experimental flow system. Analogous to the inlet, the outlet of the microfluidic channel is also connected to Tygon tubing, and the effluent culture is collected in a dish on an analytical balance. By changing the elevation of the culture reservoir above the effluent collection dish, the applied pressure difference Δp is altered, which alters the flow rate through the channel. Operating this system for 24 h with H2O at a flow rate of 15.7±0.05 μL/min reduced the liquid level in the reservoir to decrease the pressure drop across the channel by 2.1%. […]
The weight of the effluent culture was measured every 4 s on an analytical balance (GD503, Sartorius), controlled with LabVIEW. […]
where the density was assumed to be the density of water, 1 kg/L. T and τ were calculated by fitting the function
[formula] to the measured flow rate Q(t), where Q0 is the flow rate before the clogging transition. […]

Compound: CN(C)[C@@H]1C(O)=C(C(N)=O)C(=O)[C@@]2(O)C(O)=C3C(=O)c4c(O)cccc4[C@@](C)(O)[C@H]3C[C@@H]12 [tetracycline]
- duration of the clogging transition (τ): no effect
